# Test results as given in the supplement of paper PMC10307832.
# Legend:
# Experiment in all cases: relative viability (nuclei count vs DMSO), 5 days (fraction); higher = more cells survive
# NCI-H1915 = system: NCI-H1915
# In short: (§1)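 Relative viability equals treated-well nuclei counts divided by vehicle-well nuclei counts. Counts came from 4× images of lung cancer cell lines grown in 1536-well plates for 5 days after pin-tool dosing on the day after seeding. Dosing used one drug alone or a fixed anchor-drug dose plus five library-drug doses (not always all listed) in √10 steps, and values are medians of duplicate plates.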
# NCI-H2347 = system: NCI-H2347
# In short: as §1
# NCI-H2126 = system: NCI-H2126
# In short: as §1
# HCC-15 = system: HCC-15
# In short: as §1
# NCI-H2228 = system: NCI-H2228
# In short: as §1
# NCI-H460 = system: NCI-H460
# In short: as §1
# HOP-62 = system: HOP-62
# In short: as §1
# NCI-H1975 = system: NCI-H1975
# In short: as §1
# PC-3 [JPC-3] = system: PC-3 [JPC-3]
# In short: as §1
# A-427 = system: A-427
# In short: as §1
# SW 1573 = system: SW 1573
# In short: as §1
# NCI-H1792 = system: NCI-H1792
# In short: as §1
# NCI-H2342 = system: NCI-H2342
# In short: as §1
# LC-2-ad = system: LC-2-ad
# In short: as §1
# RERF-LC-KJ = system: RERF-LC-KJ
# In short: as §1
# LXF-289 = system: LXF-289
# In short: as §1
# NCI-H358 = system: NCI-H358
# In short: as §1
# LOU-NH91 = system: LOU-NH91
# In short: as §1
# NCI-H1755 = system: NCI-H1755
# In short: as §1
# NCI-H1734 = system: NCI-H1734
# In short: as §1
# NCI-H647 = system: NCI-H647
# In short: as §1
# SK-LU-1 = system: SK-LU-1
# In short: as §1
smiles,measurement,setting,value
NC(=O)Nc1cc(-c2cccc(F)c2)sc1C(=O)N[C@H]1CCCNC1 [AZD7762] + CCNC(=O)c1noc(-c2cc(C(C)C)c(O)cc2O)c1-c1ccc(CN2CCOCC2)cc1 [Luminespib] (partner 0.01 µM),relative viability,NCI-H1915; first compound 0.01 µM,0.828
same,relative viability,NCI-H1915; first compound 0.03162 µM,0.829
same,relative viability,NCI-H1915; first compound 0.1 µM,0.743
same,relative viability,NCI-H1915; first compound 0.3162 µM,0.555
same,relative viability,NCI-H1915; first compound 1 µM,0.434
same,relative viability,NCI-H2347; first compound 0.01 µM,0.417
same,relative viability,NCI-H2347; first compound 0.03162 µM,0.573
same,relative viability,NCI-H2347; first compound 0.1 µM,0.715
same,relative viability,NCI-H2347; first compound 0.3162 µM,0.396
same,relative viability,NCI-H2347; first compound 1 µM,0.63
same,relative viability,NCI-H2126; first compound 0.01 µM,0.922
same,relative viability,NCI-H2126; first compound 0.03162 µM,0.914
same,relative viability,NCI-H2126; first compound 0.1 µM,0.833
same,relative viability,NCI-H2126; first compound 0.3162 µM,0.802
same,relative viability,NCI-H2126; first compound 1 µM,0.456
same,relative viability,HCC-15; first compound 0.01 µM,0.309
same,relative viability,HCC-15; first compound 0.03162 µM,0.304
same,relative viability,HCC-15; first compound 0.1 µM,0.234
same,relative viability,HCC-15; first compound 0.3162 µM,0.163
same,relative viability,HCC-15; first compound 1 µM,0.315
same,relative viability,NCI-H2228; first compound 0.01 µM,0.139
same,relative viability,NCI-H2228; first compound 0.03162 µM,0.162
same,relative viability,NCI-H2228; first compound 0.1 µM,0.165
same,relative viability,NCI-H2228; first compound 0.3162 µM,0.133
same,relative viability,NCI-H2228; first compound 1 µM,0.125
same,relative viability,NCI-H460; first compound 0.01 µM,0.0439
same,relative viability,NCI-H460; first compound 0.03162 µM,0.0339
same,relative viability,NCI-H460; first compound 0.1 µM,0.036
same,relative viability,NCI-H460; first compound 0.3162 µM,0.026
same,relative viability,NCI-H460; first compound 1 µM,0.0276
same,relative viability,HOP-62; first compound 0.01 µM,0.983
same,relative viability,HOP-62; first compound 0.03162 µM,0.931
same,relative viability,HOP-62; first compound 0.1 µM,0.606
same,relative viability,HOP-62; first compound 0.3162 µM,0.902
same,relative viability,HOP-62; first compound 1 µM,0.65
same,relative viability,NCI-H1975; first compound 0.01 µM,0.21
same,relative viability,NCI-H1975; first compound 0.03162 µM,0.201
same,relative viability,NCI-H1975; first compound 0.1 µM,0.0969
same,relative viability,NCI-H1975; first compound 0.3162 µM,0.173
same,relative viability,NCI-H1975; first compound 1 µM,0.127
same,relative viability,PC-3 [JPC-3]; first compound 0.01 µM,0.735
same,relative viability,PC-3 [JPC-3]; first compound 0.03162 µM,0.67
same,relative viability,PC-3 [JPC-3]; first compound 0.1 µM,0.702
same,relative viability,PC-3 [JPC-3]; first compound 0.3162 µM,0.713
same,relative viability,PC-3 [JPC-3]; first compound 1 µM,0.673
same,relative viability,A-427; first compound 0.01 µM,1.23
same,relative viability,A-427; first compound 0.03162 µM,0.967
same,relative viability,A-427; first compound 0.1 µM,0.815
same,relative viability,A-427; first compound 0.3162 µM,0.58
same,relative viability,A-427; first compound 1 µM,0.322
same,relative viability,SW 1573; first compound 0.01 µM,0.885
same,relative viability,SW 1573; first compound 0.03162 µM,0.272
same,relative viability,SW 1573; first compound 0.1 µM,0.166
same,relative viability,SW 1573; first compound 0.3162 µM,0.169
same,relative viability,SW 1573; first compound 1 µM,0.161
same,relative viability,NCI-H1792; first compound 0.01 µM,0.586
same,relative viability,NCI-H1792; first compound 0.03162 µM,0.472
same,relative viability,NCI-H1792; first compound 0.1 µM,0.392
same,relative viability,NCI-H1792; first compound 0.3162 µM,0.484
same,relative viability,NCI-H1792; first compound 1 µM,0.481
same,relative viability,NCI-H2342; first compound 0.01 µM,0.69
same,relative viability,NCI-H2342; first compound 0.03162 µM,0.696
same,relative viability,NCI-H2342; first compound 0.1 µM,0.731
same,relative viability,NCI-H2342; first compound 0.3162 µM,0.819
same,relative viability,NCI-H2342; first compound 1 µM,0.676
same,relative viability,LC-2-ad; first compound 0.01 µM,1.27
same,relative viability,LC-2-ad; first compound 0.03162 µM,1.09
same,relative viability,LC-2-ad; first compound 0.1 µM,1.05
same,relative viability,LC-2-ad; first compound 0.3162 µM,0.991
same,relative viability,LC-2-ad; first compound 1 µM,0.646
same,relative viability,RERF-LC-KJ; first compound 0.01 µM,1.41
same,relative viability,RERF-LC-KJ; first compound 0.03162 µM,1.38
same,relative viability,RERF-LC-KJ; first compound 0.1 µM,1.21
same,relative viability,RERF-LC-KJ; first compound 0.3162 µM,1.2
same,relative viability,RERF-LC-KJ; first compound 1 µM,1.02
same,relative viability,LXF-289; first compound 0.01 µM,0.673
same,relative viability,LXF-289; first compound 0.03162 µM,0.601
same,relative viability,LXF-289; first compound 0.1 µM,0.753
same,relative viability,LXF-289; first compound 0.3162 µM,0.724
same,relative viability,LXF-289; first compound 1 µM,0.456
same,relative viability,NCI-H358; first compound 0.01 µM,0.275
same,relative viability,NCI-H358; first compound 0.03162 µM,0.292
same,relative viability,NCI-H358; first compound 0.1 µM,0.307
same,relative viability,NCI-H358; first compound 0.3162 µM,0.545
same,relative viability,NCI-H358; first compound 1 µM,0.142
same,relative viability,LOU-NH91; first compound 0.01 µM,0.302
same,relative viability,LOU-NH91; first compound 0.03162 µM,0.317
same,relative viability,LOU-NH91; first compound 0.1 µM,0.403
same,relative viability,LOU-NH91; first compound 0.3162 µM,0.309
same,relative viability,LOU-NH91; first compound 1 µM,0.379
same,relative viability,NCI-H1755; first compound 0.01 µM,0.498
same,relative viability,NCI-H1755; first compound 0.03162 µM,0.344
same,relative viability,NCI-H1755; first compound 0.1 µM,0.244
same,relative viability,NCI-H1755; first compound 0.3162 µM,0.225
same,relative viability,NCI-H1755; first compound 1 µM,0.275
same,relative viability,NCI-H1734; first compound 0.01 µM,0.219
same,relative viability,NCI-H1734; first compound 0.03162 µM,0.219
same,relative viability,NCI-H1734; first compound 0.1 µM,0.146
same,relative viability,NCI-H1734; first compound 0.3162 µM,0.162
same,relative viability,NCI-H1734; first compound 1 µM,0.157
same,relative viability,NCI-H647; first compound 0.01 µM,0.118
same,relative viability,NCI-H647; first compound 0.03162 µM,0.163
same,relative viability,NCI-H647; first compound 0.1 µM,0.0996
same,relative viability,NCI-H647; first compound 0.3162 µM,0.119
same,relative viability,NCI-H647; first compound 1 µM,0.101
same,relative viability,SK-LU-1; first compound 0.01 µM,0.193
same,relative viability,SK-LU-1; first compound 0.03162 µM,0.209
same,relative viability,SK-LU-1; first compound 0.1 µM,0.192
same,relative viability,SK-LU-1; first compound 0.3162 µM,0.206
same,relative viability,SK-LU-1; first compound 1 µM,0.123
